Test results reported in article PMC8070256, “Feasibility of Developing Radiotracers for MDM2: Synthesis and Preliminary Evaluation of an ^18F-Labeled Analogue of the MDM2 Inhibitor SP-141” (Pharmaceuticals, 2021).
Where “and” joins values, the source holds several entries; their conditions need not be identical. Equal values may be shown once.

Columns and labels:
[1] = In vitro stability in human serum (HPLC); type: in vitro ADME; details: 37 °C, 1, 2 and 3 h
Method: Next, the in vitro stability of [^18F]1 was examined by incubating the labeled compound with human serum for up to 3 h at 37 °C, followed by HPLC analysis of the samples using gradient elution conditions.
The stability of [^18F]1 in human serum (Innovative Research Inc., Novi, MI, USA) was analyzed by HPLC using a Chromolith® Performance RP-18e column (4.6 × 100 mm, Millipore Sigma, Burlington, MA, USA), eluted with gradient mixtures of sodium acetate buffer (0.05 M, pH 5.5) and ethanol. The percentage of ethanol was kept at 5% for the first 5 min at a flow rate of 0.5 mL and then increased to 90% over 15 min at a flow rate of 1 mL/min. The stability studies were initiated by incubating human serum (0.5 mL) with [^18F]1 (6.66 MBq in 20 µL ethanol) at 37 °C. Samples (100 µL) were analyzed by HPLC after 0, 1, 2, and 3 h incubation. At each time point, the serum sample was spiked with the nonradioactive 1 (10 µg) before HPLC analysis for identity confirmation of the parent peak ([^18F]1).

[2] = system: MCF-7 cells; assay: Saturation binding assay with [^18F]1 on MCF-7 cells; parameters: species or system human; details: 30 min incubation, nonspecific binding from cells pretreated with 1 µM SP-141 for 25 h, read-out: Kd (equilibrium dissociation constant)
Method: Next, saturation binding assays were conducted to evaluate the binding affinity of [^18F]1 on MCF-7 cells. In these experiments, MCF-7 cells seeded in 24-well plates were incubated for 30 min with eight increasing concentrations of [^18F]1 in serial two-fold dilutions (185.5–1.4 nM). Nonspecific binding was assessed in parallel using cells that were pretreated with 1 µM SP-141 for about 25 h to induce MDM2 degradation, thereby depleting MDM2 from the cells. Uptake of [^18F]1 in SP-141-pretreated cells was considered nonspecific and was subtracted from the total binding data for untreated cells at each radiotracer concentration to calculate the equilibrium dissociation constant (Kd) by nonlinear regression analysis in Graphpad Prism®.
For the saturation binding assay with [^18F]1, MCF-7 cells plated in 24-well plates (200,000 cells/well) were treated for 25 h with vehicle (DMSO, <5%; plate #1, for total binding) or SP-141 (1 µM; plate #2, to determine nonspecific binding). […] At each concentration of [^18F]1, nonspecific binding was determined in parallel (plate #2) in cells treated with 1 µM SP-141 to induce MDM2 degradation. Specific binding data were calculated by subtracting nonspecific binding from total binding and fit using the equation “Specific binding with Hill slope” in GraphPad Prism® (GraphPad, v5.01). […]

[3] = Lipophilicity, shake-flask partitioning between PBS (pH 7.4) and n-octanol; type: physicochemical; details: PBS (pH 7.4) / n-octanol, read-out: log D7.4
Method: The lipophilicity of [^18F]1 was determined by its partitioning between PBS (pH 7.4) and n-octanol by the shake-flask method as previously described.
An aliquot of [^18F]1 (0.37 MBq) was added to a mixture of PBS (pH 7.4) and n-octanol (2 mL each, n = 3) in polypropylene tubes. The mixture was vortexed for one minute, and the organic phase was separated by centrifugation (3000 rpm, 5 min). Next, aliquots of octanol (50 µL) and PBS (500 µL) were collected from each tube into preweighed Eppendorf® tubes and measured for radioactivity in an automated gamma counter (Wallac Wizard™, Perkin Elmer, Waltham, MA, USA). Samples were weighed, and the weights were converted to volume according to solvent density. The partition coefficient value was calculated as the ratio of radioactivity (counts per minute (CPM)/mL) in octanol to that in the aqueous phase.

[4] = system: HepG2 cells; assay: Cell uptake of [^18F]1 in HepG2 cells after 21 h pretreatment; type: cell-based, human; details: vehicle-treated HepG2 cells, 1 h uptake
Method: The ability of [^18F]1 to bind to MDM2 expressing human tumor cells was assessed using two wild-type p53 cell lines, MCF-7 breast adenocarcinoma, and HepG2 hepatocellular carcinoma. These cell lines have significant MDM2 expression levels and have been utilized previously for assessing potential MDM2 inhibitors, including SP-141 [12, 24, 25]. […] Thus, to examine the uptake and specificity of [^18F]1 by MDM2 expressing tumor cell lines, MCF-7 and HepG2 cells were treated with 0, 1, 5, or 10 µM SP-141 for 21 h, and then assessed for [^18F]1 uptake for 1 h.
Cell uptake studies of [^18F]1 were conducted using MCF-7 and HepG2 cell lines. […] Next, the incubation medium was removed, cells were rinsed with cold PBS (3 × 0.5 mL) and lysed using Cell Culture Lysis Reagent (0.25 mL, Promega Corporation, Madison, WI, USA) followed by a rinse with PBS (0.125 mL/well). For each well, the supernatant, PBS washes, and the cell lysate were measured for radioactivity in an automated gamma counter (Wallac Wizard™, Perkin Elmer, Waltham, MA, USA). Subsequently, cell lysates were analyzed for protein concentration using the Bradford assay (Bio-Rad, Hercules, CA, USA). Cell uptake for each well was normalized to its protein content and expressed as % uptake/mg protein. Results are presented as mean ± SD for three wells.

In the case of `[18F]CCOc1ccc2[nH]c3c(-c4cccc5ccccc45)nccc3c2c1` [[^18F]1], the “Percentage of intact [^18F]1” value [1] is reported as ~ 100%, the Kd [2] is reported as 0.0781 µM and the logD [3] is reported as 2.35 ± 0.19. The “[^18F]1 uptake, baseline” value [4] was 67.5 %/mg protein and ~ 68 %/mg protein.
